According to patent US20050009894A1 (Aventis Pharma S.A., priority 2001, published 2005):
pIC50: −log10 of the molar value.

target: T1, human KDR enzyme (Homo sapiens, UniProt P35968); test: Phosphorylation of the substrate PLCγ by the enzyme KDR in vitro (flashplate technique); format: biochemical; settings: Table VII, degrees of activity by IC50 range; read-out: Activity
T1 construct: The cytoplasmic domain of human KDR enzyme is cloned in the form of a GST fusion; GST; made in house; host or cells: SF21 insect cells (baculovirus, pFastBac)
T1 sequence (P35968 786-1356 limits assumed): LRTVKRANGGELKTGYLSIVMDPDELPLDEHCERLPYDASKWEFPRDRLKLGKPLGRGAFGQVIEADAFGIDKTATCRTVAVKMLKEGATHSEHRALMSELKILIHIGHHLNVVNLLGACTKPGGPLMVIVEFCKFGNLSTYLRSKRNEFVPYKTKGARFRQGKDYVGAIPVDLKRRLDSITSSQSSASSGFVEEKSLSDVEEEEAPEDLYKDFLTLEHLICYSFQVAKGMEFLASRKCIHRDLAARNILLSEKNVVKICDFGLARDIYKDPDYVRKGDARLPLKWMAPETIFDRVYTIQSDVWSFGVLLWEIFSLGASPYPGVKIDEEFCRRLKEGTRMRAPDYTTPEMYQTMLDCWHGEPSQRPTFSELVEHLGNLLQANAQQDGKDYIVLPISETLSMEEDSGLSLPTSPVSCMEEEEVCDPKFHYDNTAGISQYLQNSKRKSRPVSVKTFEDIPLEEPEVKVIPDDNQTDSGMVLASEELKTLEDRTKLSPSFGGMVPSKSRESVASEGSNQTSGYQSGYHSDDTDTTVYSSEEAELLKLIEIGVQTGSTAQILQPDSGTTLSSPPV
How it was run: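 GST-fused human KDR cytoplasmic domain (Sf21 baculovirus, ~60% pure; 100 ng/well) phosphorylating 2 μg GST-PLCγ SH2-SH3 fragment in MOPS pH 7.2 with MgCl2/MnCl2, 1 h at 37° C. Started with γ33P-ATP plus cold ATP (2 μM in start solution); flashplate radioactivity. % inhibition vs no-compound control; IC50 from dose-response curves.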

SMILES	pIC50
O=C(NCc1ccccc1F)c1ccc2[nH]c(-c3n[nH]c4ccccc34)nc2c1 [Example 165, 2-(1H-Indazol-3-yl)-1H-benzoimidazole-5-carboxylic acid 2-fluoro-benzylamide]	< 5.52
Cc1ccc(F)c(CNC(=O)c2ccc3[nH]c(-c4n[nH]c5ccccc45)nc3c2)c1F [Example 166, 2-(1H-Indazol-3-yl)-1H-benzoimidazole-5-carboxylic acid 2,6-difluoro-3-methyl-benzylamide]	5.52 to 6.52
O=C(NCc1ccc(Cl)cc1Cl)c1ccc2[nH]c(-c3n[nH]c4ccccc34)nc2c1 [Example 167, 2-(1H-Indazol-3-yl)-1H-benzoimidazole-5-carboxylic acid 2,4-dichloro-benzylamide]	> 6.52
O=C(NCc1ccc(Cl)cc1)c1ccc2[nH]c(-c3n[nH]c4ccccc34)nc2c1 [Example 168, 2-(1H-Indazol-3-yl)-1H-benzoimidazole-5-carboxylic acid 4-chloro-benzylamide]	> 6.52
Cc1cc(Cl)ccc1CNC(=O)c1ccc2[nH]c(-c3n[nH]c4ccccc34)nc2c1 [Example 169, 2-(1H-Indazol-3-yl)-1H-benzoimidazole-5-carboxylic acid 4-chloro-2-methyl-benzylamide]	> 6.52
O=C(NCc1ccc(F)cc1)c1ccc2[nH]c(-c3n[nH]c4ccccc34)nc2c1 [Example 170, 2-(1H-Indazol-3-yl)-1H-benzoimidazole-5-carboxylic acid 4-fluoro-benzylamide]	5.52 to 6.52
O=C(NCc1ccc(-c2ccccc2Cl)cc1)c1ccc2[nH]c(-c3n[nH]c4ccccc34)nc2c1 [Example 171, 2-(1H-Indazol-3-yl)-1H-benzoimidazole-5-carboxylic acid (2′-chloro-biphenyl-4-ylmethyl)-amide]	5.52 to 6.52
O=C(NCc1ccc(C(F)(F)F)nc1)c1ccc2[nH]c(-c3n[nH]c4ccccc34)nc2c1 [Example 172, 2-(1H-Indazol-3-yl)-1H-benzoimidazole-5-carboxylic acid (6-trifluoromethyl-pyridin-3-ylmethyl)-amide]	5.52 to 6.52
O=C(NCc1ccc(-c2ccccn2)s1)c1ccc2[nH]c(-c3n[nH]c4ccccc34)nc2c1 [Example 173, 2-(1H-Indazol-3-yl)-1H-benzoimidazole-5-carboxylic acid (5-pyridin-2-yl-thiophen-2-ylmethyl)-amide]	5.52 to 6.52
O=C(NCCCn1ccnc1)c1ccc2[nH]c(-c3n[nH]c4ccccc34)nc2c1 [Example 174, 2-(1H-Indazol-3-yl)-1H-benzoimidazole-5-carboxylic acid (3-imidazol-1-yl-propyl)-amide]	5.52 to 6.52
CC(C)(C)OC(=O)N1CCN(C(=O)c2ccc3[nH]c(-c4n[nH]c5ccccc45)nc3c2)CC1 [Example 175, 4-[2-(1H-Indazol-3-yl)-1H-benzoimidazole-5-carbonyl]-piperazine-1-carboxylic acid tert-butyl ester]	5.52 to 6.52
O=C(NCc1c(F)cc(Cl)cc1F)c1ccc2[nH]c(-c3n[nH]c4ccccc34)nc2c1 [Example 176, 2-(1H-Indazol-3-yl)-1H-benzoimidazole-5-carboxylic acid (2,6-difluoro-4-chloro-benzyl)amide]	> 6.52
O=C(NCc1c(F)cc(Cl)cc1Cl)c1ccc2[nH]c(-c3n[nH]c4ccccc34)nc2c1 [Example 177, 2-(1H-Indazol-3-yl)-1H-benzoimidazole-5-carboxylic acid (2,4-dichloro-6-fluoro-benzyl)amide]	> 6.52
O=C(NCc1ccc(Cl)c(F)c1)c1ccc2[nH]c(-c3n[nH]c4ccccc34)nc2c1 [Example 178, 2-(1H-Indazol-3-yl)-1H-benzoimidazole-5-carboxylic acid (3-fluoro-4-chloro-benzyl)amide]	> 6.52
Cc1cc(Cl)cc(F)c1CNC(=O)c1ccc2[nH]c(-c3n[nH]c4ccccc34)nc2c1 [Example 179, 2-(1H-Indazol-3-yl)-1H-benzoimidazole-5-carboxylic acid (2-fluoro-4-chloro-6-methyl-benzyl)amide]	> 6.52
COc1ccc(CNC(=O)c2ccc3[nH]c(-c4n[nH]c5ccccc45)nc3c2)cn1 [Example 180, 2-(1H-Indazol-3-yl)-1H-benzoimidazole-5-carboxylic acid (6-methoxy-pyridin-3-ylmethyl)-amide]	> 6.52
c1ccc(COc2cc(-c3nc4ccccc4[nH]3)[nH]n2)cc1 [Example 181, 2-[5-(benzyloxy)-2H-pyrazol-3-yl]-1H-benzoimidazole]	5.52 to 6.52
C(=C\c1ccccc1)/COc1cc(-c2nc3ccccc3[nH]2)[nH]n1 [Example 182, 2-[5-(3-Phenyl-allyloxy)-2H-pyrazol-3-yl]-1H-benzoimidazole]	5.52 to 6.52
C=C(C)COc1cc(-c2nc3ccccc3[nH]2)[nH]n1 [Example 183, 2-[5-(2-Methyl-allyloxy)-2H-pyrazol-3-yl]-1H-benzoimidazole]	< 5.52
CC(C)=CCC/C(C)=C/COc1cc(-c2nc3ccccc3[nH]2)[nH]n1 [Example 184, 2-[5-(3,7-Dimethyl-octa-2,6-dienyloxy)-2H-pyrazol-3-yl]-1H-benzoimidazole]	5.52 to 6.52
Brc1cccc(COc2cc(-c3nc4ccccc4[nH]3)[nH]n2)c1 [Example 185, 2-[5-(3-Bromo-benzyloxy)-2H-pyrazol-3-yl]-1H-benzoimidazole]	5.52 to 6.52

SMILES	pIC50
N#Cc1cccc(COc2cc(-c3nc4ccccc4[nH]3)[nH]n2)c1 [Example 186, 3-[5-(1H-Benzoimidazol-2-yl)-1H-pyrazol-3-yloxymethyl]-benzonitrile]	< 5.52
FC(F)(F)c1ccc(COc2cc(-c3nc4ccccc4[nH]3)[nH]n2)cc1 [Example 187, 2-[5-(4-Trifluoromethyl-benzyloxy)-2H-pyrazol-3-yl]-1H-benzoimidazole]	< 5.52
Clc1ccc(COc2cc(-c3nc4ccccc4[nH]3)[nH]n2)cc1Cl [Example 188, 2-[5-(3,4-Dichloro-benzyloxy)-2H-pyrazol-3-yl]-1H-benzoimidazole]	5.52 to 6.52
Fc1c(F)c(F)c(COc2cc(-c3nc4ccccc4[nH]3)[nH]n2)c(F)c1F [Example 189, 2-(5-Pentafluoro-phenylmethoxy-2H-pyrazol-3-yl)-1H-benzoimidazole]	< 5.52
CC(C)(C)c1ccc(COc2cc(-c3nc4ccccc4[nH]3)[nH]n2)cc1 [Example 190, 2-[5-(4-tert-Butyl-benzyloxy)-2H-pyrazol-3-yl]-1H-benzoimidazole]	< 5.52
O=S(=O)(Cc1ccccc1COc1cc(-c2nc3ccccc3[nH]2)[nH]n1)c1ccccc1 [Example 191, 2-[5-(2-Benzenesulfonylmethylbenzyloxy)-2H-pyrazol-3-yl]-1H-benzoimidazole]	5.52 to 6.52
N#Cc1ccc(COc2cc(-c3nc4ccccc4[nH]3)[nH]n2)cc1 [Example 192, 4-[5-(1H-Benzoimidazol-2-yl)-1H-pyrazol-3-yloxymethyl]-benzonitrile]	< 5.52
c1ccc(-c2ccc(COc3cc(-c4nc5ccccc5[nH]4)[nH]n3)cc2)cc1 [Example 193, 2-[5-(Biphenyl-4-ylmethoxy)-2H-pyrazol-3-yl]-1H-benzoimidazole]	5.52 to 6.52
O=S(=O)(Oc1cc(-c2nc3ccccc3[nH]2)[nH]n1)c1cccc(Cl)c1Cl [Example 194, 2,3-Dichloro-benzenesulfonic acid 5-(1H-benzoimidazol-2-yl)-1H-pyrazol-3-yl ester]	< 5.52
c1ccc2[nH]c(-c3cc(OCCN4CCOCC4)n[nH]3)nc2c1 [Example 195, 2-[5-(2-Morpholin-4-yl-ethoxy)-2H-pyrazol-3-yl]-1H-benzoimidazole]	< 5.52
c1ccc2[nH]c(-c3cc(OCCN4CCCCC4)n[nH]3)nc2c1 [Example 196, 2-[5-(2-Piperidin-1-yl-ethoxy)-2H-pyrazol-3-yl]-1H-benzoimidazole]	< 5.52
COc1cccc(COc2cc(-c3nc4ccccc4[nH]3)[nH]n2)c1 [Example 197, 2-[5-(3-Methoxy-benzyloxy)-2H-pyrazol-3-yl]-1H-benzoimidazole]	5.52 to 6.52
Cc1ccc(C(=O)COc2cc(-c3nc4ccccc4[nH]3)[nH]n2)cc1 [Example 198, 2-[5-(1H-Benzoimidazol-2-yl)-1H-pyrazol-3-yloxy]-1-p-tolyl-ethanone]	< 5.52
O=C(COc1cc(-c2nc3ccccc3[nH]2)[nH]n1)C(F)(F)C(F)(F)F [Example 199, 1-[5-(1H-Benzoimidazol-2-yl)-1H-pyrazol-3-yloxy]-3,3,4,4,4-pentafluoro-butan-2-one]	< 5.52
O=C(COc1cc(-c2nc3ccccc3[nH]2)[nH]n1)c1ccc(-c2ccccc2)cc1 [Example 200, 2-[5-(1H-Benzoimidazol-2-yl)-1H-pyrazol-3-yloxy]-1-biphenyl-4-yl-ethanone]	< 5.52
CCC(=O)COc1cc(-c2nc3ccccc3[nH]2)[nH]n1 [Example 201, 1-[5-(1H-Benzoimidazol-2-yl)-1H-pyrazol-3-yloxy]-butan-2-one]	< 5.52
CN(C)c1ccc(C(=O)COc2cc(-c3nc4ccccc4[nH]3)[nH]n2)cc1 [Example 202, 2-[5-(1H-Benzoimidazol-2-yl)-1H-pyrazol-3-yloxy]-1-(4-dimethylamino-phenyl)-ethanone]	< 5.52
O=C(COc1cc(-c2nc3ccccc3[nH]2)[nH]n1)c1cc(-c2ccccc2)no1 [Example 203, 2-[5-(1H-Benzoimidazol-2-yl)-1H-pyrazol-3-yloxy]-1-(3-phenyl-isoxazol-5-yl)-ethanone]	< 5.52
O=C(COc1cc(-c2nc3ccccc3[nH]2)[nH]n1)Nc1ccccc1 [Example 204, 2-[5-(1H-Benzoimidazol-2-yl)-1H-pyrazol-3-yloxy]-N-phenyl-acetamide]	< 5.52
CC(C)(C)C(=O)COc1cc(-c2nc3ccccc3[nH]2)[nH]n1 [Example 205, 1-[5-(1H-Benzoimidazol-2-yl)-1H-pyrazol-3-yloxy]-3,3-dimethyl-butan-2-one]	< 5.52
